Key:
Test in all cases: Glasshouse herbicidal test, pre- and post-emergence, percentage damage to the plant
Format in all cases: in vivo
Avena fatua (AVEFA) = settings: 250 g/h, evaluated after 13 days; for AVEFA POST percentage damage caused to the plant (five-point scale): post-emergence; for AVEFA PRE percentage damage caused to the plant (five-point scale): pre-emergence
Procedure: (§1) Seeds of a variety of test species are sown in standard soil in pots (Lolium perenne (LOLPE), Setaria faberi (SETFA), Alopecurus myosuroides (ALOMY), Echinochloa crus-galli (ECHCG), Avena fatua (AVEFA)). After cultivation for one day (pre-emergence) or after 8 days cultivation (post-emergence) under controlled conditions in a glasshouse (at 24/16° C., day/night; 14 hours light; 65% humidity), the plants are sprayed with an aqueous spray solution derived from the formulation of the technical active ingredient in acetone/water (50:50) solution containing 0.5% Tween 20 (polyoxyethelyene sorbitan monolaurate, CAS RN 9005-64-5). Compounds are applied at 250 g/h. The test plants are then grown in a glasshouse under controlled conditions in a glasshouse (at 24/16° C., day/night; 14 hours light; 65% humidity) and watered twice daily. After 13 days for pre and post-emergence, the test is evaluated for the percentage damage caused to the plant. The biological activities are shown in the following table on a five-point scale (5=80-100%; 4=60-79%; 3=40-59%; 2=20-39%; 1=0-19%).

Setaria faberi (SETFA) = settings: 250 g/h, evaluated after 13 days; for SETFA POST percentage damage caused to the plant (five-point scale): post-emergence; for SETFA PRE percentage damage caused to the plant (five-point scale): pre-emergence
Procedure: as §1

Lolium perenne (LOLPE) = settings: 250 g/h, evaluated after 13 days; for LOLPE POST percentage damage caused to the plant (five-point scale): post-emergence; for LOLPE PRE percentage damage caused to the plant (five-point scale): pre-emergence
Procedure: as §1

[1] = tested on: Echinochloa crus-galli (ECHCG); settings: 250 g/h, evaluated after 13 days; for ECHCG POST percentage damage caused to the plant (five-point scale): post-emergence; for ECHCG PRE percentage damage caused to the plant (five-point scale): pre-emergence
Procedure: as §1

[2] = tested on: Alopecurus myosuroides (ALOMY); settings: 250 g/h, evaluated after 13 days; for ALOMY POST percentage damage caused to the plant (five-point scale): post-emergence; for ALOMY PRE percentage damage caused to the plant (five-point scale): pre-emergence
Procedure: as §1

Structure (SMILES)	AVEFA POST percentage damage caused to the plant (five-point scale) (Avena fatua (AVEFA))	AVEFA PRE percentage damage caused to the plant (five-point scale) (Avena fatua (AVEFA))	SETFA POST percentage damage caused to the plant (five-point scale) (Setaria faberi (SETFA))	SETFA PRE percentage damage caused to the plant (five-point scale) (Setaria faberi (SETFA))	LOLPE POST percentage damage caused to the plant (five-point scale) (Lolium perenne (LOLPE))	LOLPE PRE percentage damage caused to the plant (five-point scale) (Lolium perenne (LOLPE))	ECHCG POST percentage damage caused to the plant (five-point scale) [1]	ECHCG PRE percentage damage caused to the plant (five-point scale) [1]	ALOMY POST percentage damage caused to the plant (five-point scale) [2]	ALOMY PRE percentage damage caused to the plant (five-point scale) [2]
CC#Cc1cc(C)c(C2C(=O)CC3(CCNC(=O)C3)CC2=O)c(C)c1 (stereo not shown) [Compound A2]	4 (4=60-79%)	3 (3=40-59%)	5 (5=80-100%)	5 (5=80-100%)	4 (4=60-79%)	4 (4=60-79%)	5 (5=80-100%)	3 (3=40-59%)	3 (3=40-59%)	3 (3=40-59%)
CC#Cc1cc(C)c(C2C(=O)CC3(CCCN(C(C)=O)C3)CC2=O)c(C)c1 (stereo not shown) [Compound A3]	5 (5=80-100%)	3 (3=40-59%)	5 (5=80-100%)	3 (3=40-59%)	5 (5=80-100%)	2 (2=20-39%)	5 (5=80-100%)	2 (2=20-39%)	5 (5=80-100%)	2 (2=20-39%)
CC#Cc1cc(C)c(C2C(=O)CC3(CCN(C(C)=O)C3)CC2=O)c(C)c1 (stereo not shown) [Compound A4]	5 (5=80-100%)	5 (5=80-100%)	5 (5=80-100%)	5 (5=80-100%)	5 (5=80-100%)	5 (5=80-100%)	5 (5=80-100%)	5 (5=80-100%)	5 (5=80-100%)	5 (5=80-100%)
CC#Cc1cc(C)c(C2C(=O)CC3(CCN(C)C(=O)C3=O)CC2=O)c(C)c1 (stereo not shown) [Compound A5]	4 (4=60-79%)	3 (3=40-59%)	5 (5=80-100%)	5 (5=80-100%)	5 (5=80-100%)	5 (5=80-100%)	5 (5=80-100%)	5 (5=80-100%)	5 (5=80-100%)	3 (3=40-59%)
CC#Cc1cc(C)c(C2C(=O)CC3(CCCN(C(=O)OC(C)(C)C)CC3)CC2=O)c(C)c1 (stereo not shown) [Compound A6]	4 (4=60-79%)	4 (4=60-79%)	5 (5=80-100%)	5 (5=80-100%)	5 (5=80-100%)	5 (5=80-100%)	5 (5=80-100%)	5 (5=80-100%)	5 (5=80-100%)	4 (4=60-79%)
CC#Cc1cc(C)c(C2C(=O)CC3(CCN(S(=O)(=O)CC)C3)CC2=O)c(C)c1 (stereo not shown) [Compound A7]	5 (5=80-100%)	5 (5=80-100%)	5 (5=80-100%)	5 (5=80-100%)	5 (5=80-100%)	5 (5=80-100%)	5 (5=80-100%)	5 (5=80-100%)	5 (5=80-100%)	5 (5=80-100%)
CC#Cc1cc(C)c(C2C(=O)CC3(CCCN(S(=O)(=O)CC)CC3)CC2=O)c(C)c1 (stereo not shown) [Compound A8]	5 (5=80-100%)	5 (5=80-100%)	5 (5=80-100%)	5 (5=80-100%)	5 (5=80-100%)	5 (5=80-100%)	5 (5=80-100%)	5 (5=80-100%)	5 (5=80-100%)	5 (5=80-100%)
CC#Cc1cc(C)c(C2C(=O)CC3(CCCN(C(C)=O)CC3)CC2=O)c(C)c1 (stereo not shown) [Compound A9]	5 (5=80-100%)	5 (5=80-100%)	5 (5=80-100%)	5 (5=80-100%)	5 (5=80-100%)	5 (5=80-100%)	5 (5=80-100%)	5 (5=80-100%)	5 (5=80-100%)	5 (5=80-100%)
CC#Cc1cc(C)c(C2C(=O)CC3(CCC(=O)NC3)CC2=O)c(C)c1 (stereo not shown) [Compound A10]	5 (5=80-100%)	5 (5=80-100%)	5 (5=80-100%)	5 (5=80-100%)	5 (5=80-100%)	5 (5=80-100%)	5 (5=80-100%)	5 (5=80-100%)	5 (5=80-100%)	5 (5=80-100%)
CC#Cc1cc(C)c(C2C(=O)CC3(CCC(=O)N(C(C)=O)C3)CC2=O)c(C)c1 (stereo not shown) [Compound A11]	5 (5=80-100%)	3 (3=40-59%)	5 (5=80-100%)	5 (5=80-100%)	5 (5=80-100%)	5 (5=80-100%)	5 (5=80-100%)	5 (5=80-100%)	5 (5=80-100%)	5 (5=80-100%)

From patent US12479804B2, “Herbicidal compounds” (SYNGENTA CROP PROTECTION AG, priority 2019, dated 2025)
